Converted amounts (≈) assume the structure as drawn. Like-named read-outs stand apart in the source and are kept apart here.
Assays:
S. mutans ATCC 25175 [1] = assay: Minimum inhibitory concentration (MIC) assay; format: cell-based, Streptococcus mutans
Experimental: (§1) S. mutans was cultured and maintained on Wilkins-Chalgren Anaerobe Medium (agar and broth) at pH 7.0 supplemented with 1 g/L glucose; all cultures were incubated at 37° C. for 48 hours in an atmosphere containing 5% CO2. For the formation of biofilms in biofilm disruption assays, however, S. mutans was grown in brain-heart infusion broth supplemented with 5% sucrose. This is a standard international method for quantitatively assessing the antimicrobial activity of a compound in a liquid medium. The method used a sterile 96-well microtitre plate, capable of holding about 200 μl of liquid per well. […] The culture medium was as described above. The wells were inoculated with a liquid suspension of freshly grown micro-organism and incubated under the conditions described above. After incubation, the microtitre plate was examined visually (with the aid of a light box) for cloudiness in each well, which would indicate microbial growth. The MIC value was recorded as the lowest concentration of test compound required to inhibit microbial growth, ie the lowest concentration for which the liquid in the well remained clear. The assays were conducted in duplicate (minimum) and included both negative (culture medium with no micro-organisms) and positive (culture medium plus diluting solvent plus micro-organism) controls.

P. gingivalis NCTC 11834 [2] = assay: Minimum inhibitory concentration (MIC) assay; format: cell-based, Porphyromonas gingivalis
Experimental: as §1, with “P. gingivalis strains were cultured and” for “S. mutans was cultured and”, “at pH 7.0; all cultures” for “at pH 7.0 supplemented with 1 g/L glucose; all cultures”, “were incubated anaerobically at 37°” for “were incubated at 37°”, “C. for 5-7 days. This is” for “C. for 48 hours in an atmosphere containing 5% CO2. For the formation of biofilms in biofilm disruption assays, however, S. mutans was grown in brain-heart infusion broth supplemented with 5% sucrose. This is”

P. gingivalis NCTC 11834 [3] = assay: Minimum bactericidal concentration (MBC) assay; format: cell-based, Porphyromonas gingivalis
Experimental: P. gingivalis strains were cultured and maintained on Wilkins-Chalgren Anaerobe Medium (agar and broth) at pH 7.0; all cultures were incubated anaerobically at 37° C. for 5-7 days.
(§2) This assay, normally carried out after an MIC assay, determines the minimum concentration of a compound that is lethal to the micro-organism being tested.
(§3) These samples were then individually sub-cultured on antibiotic-free agar medium, under the incubation conditions described above. Following incubation they were examined visually for microbial growth.
(§4) The ratio of MIC to MBC should ideally be as close to 1 as possible.

S. mutans ATCC 25175 [4] = assay: Minimum bactericidal concentration (MBC) assay; format: cell-based, Streptococcus mutans
Experimental: S. mutans was cultured and maintained on Wilkins-Chalgren Anaerobe Medium (agar and broth) at pH 7.0 supplemented with 1 g/L glucose; all cultures were incubated at 37° C. for 48 hours in an atmosphere containing 5% CO2. For the formation of biofilms in biofilm disruption assays, however, S. mutans was grown in brain-heart infusion broth supplemented with 5% sucrose.
as §2, §3, §4

[5] = system: P. gingivalis 381 biofilm; assay: Biofilm disruption assay on hydroxyapatite discs; format: cell-based, Porphyromonas gingivalis; details: 0.2% (w/v)
Experimental: (§5) This assay was designed to determine quantitatively the relative potency of a test compound to disrupt (effectively kill) biofilms formed by a test organism on hydroxyapatite (HA) discs. Biofilms were formed on sterile dense ceramic HA discs 7 mm diameter×1.8 mm thick (Clarkson Chromatography) by placing the discs in the appropriate liquid media (as described above) inoculated with the test organism (0.5×10^8 cfu/ml). The HA discs were then incubated at 37° C. for ˜48 hours in a 5% CO2 atmosphere (for S. mutans ATCC 25175) or ˜96 hours under anaerobic conditions (for P. gingivalis 381). Following the incubation period the supernatant was removed from the wells containing the HA discs and the discs were washed x3 with fresh media to ensure all planktonic cells were removed. The HA discs were then transferred to sterile bijoux bottles containing 1 ml of phosphate buffered saline (PBS) plus test compound(s) at the required concentration. After a set time period (usually 2 and/or 5 min), the HA disc was transferred to another sterile bijoux containing 1 ml of fresh growth media. Adherent cells were then harvested by vigorous vortexing for 2 minutes. A sample was then taken, serially diluted 10-fold in fresh growth media and inoculated onto agar plates in triplicate. Untreated HA discs, and HA discs added to PBS containing only the solvents used to dissolve the test compound(s), acted as controls. The plates were then incubated as described above and subsequently examined visually for growth. Colonies were counted at an appropriate serial dilution (5-50 individual colonies visible) with the aid of a colony counter. These measurements were then converted to numbers of colony forming units (cfu), using the formula: cfu/ml=number of colonies×serial dilution factor×100 (as only a 10 μl sample was taken). These cfu values were then converted into log10 values and plotted graphically against time of sample removal. At each time point, samples were assessed in triplicate; the final cfu/ml value was an average (mean) of the three readings. Biofilm disruption assays, as described above, were carried out using TBHQ as the test compound and chlorhexidine as a positive control. The negative control was 5% ethanol. For these experiments, the TBHQ and chlorhexidine were tested at concentrations of 0.2% w/v. The TBHQ was dissolved in ethanol and the chlorhexidine in distilled water. All the experiments were conducted in triplicate.

P. gingivalis NCTC 11834 [6] = assay: Short-contact kill assay (SCKA); format: cell-based, Porphyromonas gingivalis; details: 0.2% (w/v)
Experimental: (§6) This quantitative assay was designed to determine the relative potency of a test compound or combination of test compounds to kill a test micro-organism over a short-contact time period (up to 5 minutes).
(§7) Samples from a culture of micro-organisms (ca. 1×10^8 cfu/ml) prepared in phosphate buffered saline (PBS) containing the relevant test compound(s) were taken at timed intervals (between 0 and 5 minutes), 10-fold serially diluted in PBS and then inoculated onto agar plates in triplicate. A culture containing only the solvent(s) used to dissolve the test compound(s) acted as a control for the assay (maximum solvent load 2.5% v/v).
(§8) The plates were then incubated as described above and subsequently examined visually for growth. Colonies were counted at an appropriate serial dilution (5-50 individual colonies visible) with the aid of a colony counter. These measurements were then converted to numbers of colony forming units (cfu), using the formula: cfu/ml=number of colonies×serial dilution factor×100 (as only a […] was taken).
(§9) These cfu values were then converted into […] values and plotted graphically against time of sample removal.
(§10) At each time point, samples were assessed in triplicate; the final cfu/ml value was an average (mean) of the three readings.
(§11) SCKAs, as described above, were carried out using TBHQ as the test compound. Chlorhexidine was used as a positive control and 2.5% ethanol as a negative control.
(§12) For the SCKA experiments, the TBHQ and chlorhexidine were both tested at concentrations of 0.2% w/v. The TBHQ was dissolved in ethanol and the chlorhexidine in distilled water. All the experiments were conducted in triplicate.

[7] = system: S. mutans ATCC 25175 biofilm; assay: Biofilm disruption assay on hydroxyapatite discs; format: cell-based, Streptococcus mutans; details: 0.2% (w/v)
Experimental: as §5

S. mutans ATCC 25175 [8] = assay: Short-contact kill assay (SCKA); format: cell-based, Streptococcus mutans; details: 0.2% (w/v)
Experimental: as §6, §7, §8, §9, §10, §11, §12

[9] = system: Pseudomonas aeruginosa ATCC 27853; assay: MBC assay; format: cell-based
Experimental: as §2, §3

[10] = system: Escherichia coli ATCC 25922; assay: MBC assay; format: cell-based
Experimental: as §2, §3

[11] = system: Klebsiella pneumoniae ATCC 700603; assay: MBC assay; format: cell-based
Experimental: as §2, §3

[12] = system: Acinetobacter baumanni ATCC 19606; assay: MBC assay; format: cell-based
Experimental: as §2, §3

[13] = 5 min, 2.00 = limit of detection
[14] = 1 min, 3.00 = limit of detection
[15] = 0.5 min, 3.00 = limit of detection

| MIC (S. mutans ATCC 25175 [1]; Table 8) | MIC (P. gingivalis NCTC 11834 [2]; Table 7) | SMILES | MBC (P. gingivalis NCTC 11834 [3]; Table 7) | MBC (S. mutans ATCC 25175 [4]; Table 8) | MIC/MBC ratio (S. mutans ATCC 25175 [4]; Table 8) | MIC/MBC ratio (P. gingivalis NCTC 11834 [3]; Table 7) | Viable cell counts ([5]; 0 min) | Viable cell counts ([5]; 2 min) | Viable cell counts [5, 13] | Viable cell counts (P. gingivalis NCTC 11834 [6]; 0 min) | Viable cell counts (P. gingivalis NCTC 11834 [6]; 0.5 min) | Viable cell counts (P. gingivalis NCTC 11834 [6]; [14]) | Viable cell counts ([7]; 0 min) | Viable cell counts ([7]; 2 min) | Viable cell counts ([7]; 5 min) | MIC/MBC ratio (P. gingivalis NCTC 11834 [3]; Tables 1, 2) | MIC/MBC ratio (S. mutans ATCC 25175 [4]; Tables 1, 2) | Viable cell counts (S. mutans ATCC 25175 [8]; 0 min) | Viable cell counts (S. mutans ATCC 25175 [8]; [15]) | Viable cell counts (S. mutans ATCC 25175 [8]; [14]) | also measured |
| --- | --- | --- | --- | --- | --- | --- | --- | --- | --- | --- | --- | --- | --- | --- | --- | --- | --- | --- | --- | --- | --- |
| 1.95 µg/mL (≈ 11.7 µM) | < 0.49 µg/mL | Cc1cc(O)c(C(C)C)cc1O [Thymohydroquinone, thymohydroquinone] | 0.98 µg/mL (≈ 5.9 µM) | 250 µg/mL (≈ 1500 µM) | 0.008 | <0.5 |  |  |  |  |  |  |  |  |  |  |  |  |  |  |  |
| 3.9 µg/mL (≈ 23.8 µM) | 0.49 µg/mL (≈ 2.98 µM) | CC1=CC(=O)C(C(C)C)=CC1=O [Thymoquinone, thymoquinone] | 0.98 µg/mL (≈ 5.97 µM) | > 250 µg/mL | <0.0156 | 0.5 |  |  |  |  |  |  |  |  |  |  |  |  |  |  |  |

Further lines, the compound ahead of its results:

| SMILES | MIC (S. mutans ATCC 25175 [1]; Table 8) | MIC (P. gingivalis NCTC 11834 [2]; Table 7) | MBC (P. gingivalis NCTC 11834 [3]; Table 7) | MBC (S. mutans ATCC 25175 [4]; Table 8) | MIC/MBC ratio (S. mutans ATCC 25175 [4]; Table 8) | MIC/MBC ratio (P. gingivalis NCTC 11834 [3]; Table 7) | Viable cell counts ([5]; 0 min) | Viable cell counts ([5]; 2 min) | Viable cell counts [5, 13] | Viable cell counts (P. gingivalis NCTC 11834 [6]; 0 min) | Viable cell counts (P. gingivalis NCTC 11834 [6]; 0.5 min) | Viable cell counts (P. gingivalis NCTC 11834 [6]; [14]) | Viable cell counts ([7]; 0 min) | Viable cell counts ([7]; 2 min) | Viable cell counts ([7]; 5 min) | MIC/MBC ratio (P. gingivalis NCTC 11834 [3]; Tables 1, 2) | MIC/MBC ratio (S. mutans ATCC 25175 [4]; Tables 1, 2) | Viable cell counts (S. mutans ATCC 25175 [8]; 0 min) | Viable cell counts (S. mutans ATCC 25175 [8]; [15]) | Viable cell counts (S. mutans ATCC 25175 [8]; [14]) | also measured |
| --- | --- | --- | --- | --- | --- | --- | --- | --- | --- | --- | --- | --- | --- | --- | --- | --- | --- | --- | --- | --- | --- |
| CC(C)(C)C1=CC(=O)C=CC1=O [2-t-butyl-p-benzoquinone] | 31.2 µg/mL (≈ 190 µM) | < 0.49 µg/mL | < 0.49 µg/mL | 62.5 µg/mL (≈ 381 µM) | 0.5 |  |  |  |  |  |  |  |  |  |  |  |  |  |  |  |  |
| CCCCCCc1ccc(O)cc1O [4-hexyl resorcinol] | 31.2 µg/mL (≈ 161 µM) | 3.9 µg/mL (≈ 20.1 µM) | 7.8 µg/mL (≈ 40.1 µM) | 125 µg/mL (≈ 643 µM) | 0.25 | 0.5 |  |  |  |  |  |  |  |  |  |  |  |  |  |  |  |
| [H]/N=C(\N/C(=N/[H])NCCCCCCNC(=N)NC(=N)Nc1ccc(Cl)cc1)Nc1ccc(Cl)cc1 [CHX, chlorhexidine, reference compound] |  |  |  |  |  |  | 7.74 Log10 cfu/ml | 6.08 Log10 cfu/ml | 6.29 Log10 cfu/ml | 9.29 Log10 cfu/ml | *3.00 Log10 cfu/ml | *3.00 Log10 cfu/ml | 6.36 Log10 cfu/ml | 5.00 Log10 cfu/ml | 5.21 Log10 cfu/ml | 1 | 0.5 | 8.05 Log10 cfu/ml | *3.00 Log10 cfu/ml | *3.00 Log10 cfu/ml | MIC (S. mutans ATCC 25175 [1]; Streptococcus mutans, ATCC25175, Tables 1, 2, read-out: MIC): 0.625 µg/mL (≈ 1.24 µM); MIC (P. gingivalis NCTC 11834 [2]; Porphyromonas gingivalis, NCTC11834, Tables 1, 2, read-out: MIC): 0.98 µg/mL (≈ 1.94 µM); MBC (P. gingivalis NCTC 11834 [3]; Porphyromonas gingivalis, NCTC11834, Tables 1, 2, read-out: MBC): 0.98 µg/mL (≈ 1.94 µM); MBC (S. mutans ATCC 25175 [4]; Streptococcus mutans, ATCC25175, Tables 1, 2, read-out: MBC): 1.25 µg/mL (≈ 2.47 µM) |
| CC(C)(C)c1cc(O)ccc1O [TBHQ, t-butyl-p-hydroquinone] |  |  |  |  |  |  | 7.74 Log10 cfu/ml | 6.52 Log10 cfu/ml | *2.00 Log10 cfu/ml | 9.32 Log10 cfu/ml | 6.50 Log10 cfu/ml | *3.00 Log10 cfu/ml | 6.36 Log10 cfu/ml | 6.52 Log10 cfu/ml | 6.24 Log10 cfu/ml | 0.5 | 1 | 7.64 Log10 cfu/ml | 7.56 Log10 cfu/ml | 7.36 Log10 cfu/ml | MBC [9]: > 1000 µg/mL; MBC [10]: 500 µg/mL (≈ 3010 µM); MBC [11]: 1000 µg/mL (≈ 6020 µM); MBC [12]: 500 µg/mL (≈ 3010 µM); MIC (S. mutans ATCC 25175 [1]; Tables 1, 2): 31.25 µg/mL (≈ 188 µM); MIC (P. gingivalis NCTC 11834 [2]; Tables 1, 2): 0.49 µg/mL (≈ 2.95 µM); MBC (P. gingivalis NCTC 11834 [3]; Tables 1, 2): 0.98 µg/mL (≈ 5.9 µM); MBC (S. mutans ATCC 25175 [4]; Tables 1, 2): 31.25 µg/mL (≈ 188 µM) |

Reference: US20100310478A1, “SUBSTITUTED BENZOQUINONES AND HYDROQUINONES IN THE TREATMENT OF PERIODONTAL DISEASES” (priority 2007, published 2010)
